PubChem BioAssay AID1963838 (Molecular Pharmacology Branch, DTP, NCI, 2024)

System: 855422-203-R-J1-PDC complex spheroid viability
Test: Anticancer human tumor 855422-203-R-J1-PDC patient-derived bladder carcinoma cell line growth inhibition [POLQ]
Conditions: for IC50: curve of first compound; for viability, T/C: stronger effect = lower value
Procedure, shortened: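 PDC + HUVEC + MSC complex spheroids; POLQ inhibitors ± partner drugs; top conc. at/near clinical Cmax, else 10 microM (SN-38 1 microM), half-log dilutions; 37 degrees C, 5% CO2.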
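Further: spheroids exposed to compounds for seven days before readout.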

O=C(Nc1ccc(O)c(NS(=O)(=O)c2ccc(F)cc2)c1)c1ccc(-c2ccccc2)cc1 + COC1C(OC(N)=O)C(O)C(Oc2ccc3c(O)c(NC(=O)c4ccc(O)c(CC=C(C)C)c4)c(=O)oc3c2C)OC1(C)C
IC50 (second compound 0.0316 µM): 8.24 µM
IC50 (second compound 0.1 µM): 8.44 µM
IC50 (second compound 0.316 µM): 8.45 µM
IC50 (second compound 1 µM): 8.14 µM
IC50 (second compound 3.16 µM): 7.83 µM
IC50 (second compound 10 µM): 7.63 µM
viability, T/C (second compound 0.0316 µM, first compound 0.0316 µM): 101%
viability, T/C (second compound 0.0316 µM, first compound 0.1 µM): 101%
viability, T/C (second compound 0.0316 µM, first compound 0.316 µM): 119%
viability, T/C (second compound 0.0316 µM, first compound 1 µM): 116%
viability, T/C (second compound 0.0316 µM, first compound 3.16 µM): 106%
viability, T/C (second compound 0.0316 µM, first compound 10 µM): 38.7%
viability, T/C (second compound 0.1 µM, first compound 0.0316 µM): 109%
viability, T/C (second compound 0.1 µM, first compound 0.1 µM): 105%
viability, T/C (second compound 0.1 µM, first compound 0.316 µM): 110%
viability, T/C (second compound 0.1 µM, first compound 1 µM): 98.2%
viability, T/C (second compound 0.1 µM, first compound 3.16 µM): 103%
viability, T/C (second compound 0.1 µM, first compound 10 µM): 40.8%
viability, T/C (second compound 0.316 µM, first compound 0.0316 µM): 105%
viability, T/C (second compound 0.316 µM, first compound 0.1 µM): 110%
viability, T/C (second compound 0.316 µM, first compound 0.316 µM): 113%
viability, T/C (second compound 0.316 µM, first compound 1 µM): 110%
viability, T/C (second compound 0.316 µM, first compound 3.16 µM): 106%
viability, T/C (second compound 0.316 µM, first compound 10 µM): 40.4%
viability, T/C (second compound 1 µM, first compound 0.0316 µM): 106%
viability, T/C (second compound 1 µM, first compound 0.1 µM): 111%
viability, T/C (second compound 1 µM, first compound 0.316 µM): 111%
viability, T/C (second compound 1 µM, first compound 1 µM): 113%
viability, T/C (second compound 1 µM, first compound 3.16 µM): 98.8%
viability, T/C (second compound 1 µM, first compound 10 µM): 39%
viability, T/C (second compound 3.16 µM, first compound 0.0316 µM): 109%
viability, T/C (second compound 3.16 µM, first compound 0.1 µM): 122%
viability, T/C (second compound 3.16 µM, first compound 0.316 µM): 112%
viability, T/C (second compound 3.16 µM, first compound 1 µM): 111%
viability, T/C (second compound 3.16 µM, first compound 3.16 µM): 94.2%
viability, T/C (second compound 3.16 µM, first compound 10 µM): 37.9%
viability, T/C (second compound 10 µM, first compound 0.0316 µM): 107%
viability, T/C (second compound 10 µM, first compound 0.1 µM): 104%
viability, T/C (second compound 10 µM, first compound 0.316 µM): 108%
viability, T/C (second compound 10 µM, first compound 1 µM): 102%
viability, T/C (second compound 10 µM, first compound 3.16 µM): 101%
viability, T/C (second compound 10 µM, first compound 10 µM): 34.6%
